Assay results reported in patent US20240108607A1, “METHOD FOR MANUFACTURING NOVEL NITROGEN-CONTAINING COMPOUND OR SALT THEREOF AND MANUFACTURING INTERMEDIATE OF NOVEL NITROGEN-CONTAINING COMPOUND OR SALT THEREOF” (FUJIFILM Corporation, priority 2015, published 2024).
Read-outs that look alike come from different tables or passages of the source. Values belong to the compound of their own block, whether it stands above or below them.

Columns and labels:
U87MG cells [1] = experiment: Radioactivity concentration of labeled compounds in tumor, U87MG subcutaneous transplantation; format: in vivo, mice (Balb/c AJcl-nu/nu); conditions: caudal vein, 111In 740 kBq, 64Cu and 90Y 500 kBq
Procedure: Test Example 3 Evaluation based on radioactivity concentration of ^111In-labeled compound, ^64Cu-labeled compound, and ^90Y-labeled compound in tumor
After 2 to 3 weeks, at a point in time when the tumor volume became 200 to 500 mm^3, 3 mice were sorted into one group at each point in time. The ^111In-labeled compound (740 k Bq) was administered into the caudal vein, the animals were sacrificed after a certain period of time, and the tumor was extracted. The weight of the tumor was measured, the radioactivity was measured using a gamma counter, and the radioactivity concentration in tumor (% ID/g) was calculated. For the ^64Cu-labeled compound (500 k Bq) and the ^90Y-labeled compound (500 k Bq), the radioactivity concentration in tumor (% ID/g) was calculated by the same method.

[2] = Radiochemical purity after standing at room temperature (reversed-phase TLC); format: physicochemical
Procedure: A indium [^111In] chloride solution (80 MBq, 100 μL) was added to a mixture of the compound A (8.5 μg) and a 0.2 mol/L sodium acetate buffer solution (pH 4.0) (1.5 mL). The solution was heated to 100° C. for 15 minutes and then left to stand for 5 minutes at room temperature, thereby obtaining [^111In]-(compound A). […] The radiochemical purity measured immediately after the compound was prepared and measured after 24 hours at room temperature was equal to or higher than 95%.
A yttrium [^90Y] chloride solution (700 MBq, 240 μL) was added to a mixture of the compound (79 μg), gentisic acid (1.8 mg), a 0.6 mol/L sodium acetate buffer solution (pH 4.0, 120 μL), and 0.4 mol/L aqueous sodium hydroxide solution (24 μL). The solution was heated to 100° C. for 20 minutes and then left to stand for 5 minutes at room temperature, thereby obtaining [90^Y]-(compound A). […] The radiochemical purity measured immediately after the compound was prepared and measured after 24 hours at room temperature was equal to or higher than 95%.
A copper [^64Cu] chloride solution (pH 5, 35 MBq, 55 μL) was added to a mixture of the compound A (5.8 μg) and 0.2 mol/L sodium acetate buffer solution (pH 4.0, 219 μL). The solution was heated to 100° C. for 15 minutes and left to stand for 5 minute at room temperature, thereby obtaining [^64Cu]-(compound A). […] The radiochemical purity measured immediately after the compound was prepared and measured after 22 hours at room temperature was equal to or higher than 90%.
A 0.2 mol/L sodium acetate buffer solution of Copper [^64Cu] chloride (pH 4.0) (40 MBq, 155 μL) was added to a mixture of the compound B (4.2 μg), gentisic acid (1 mg), and a 0.2 mol/L sodium acetate buffer solution (pH 4.0) (5.0 μL). The solution was heated to 100° C. for 15 minutes and left to stand for 5 minutes at room temperature, thereby obtaining [^64Cu]-(compound B). […] The radiochemical purity measured immediately after the compound was prepared and measured after 24 hours at room temperature was equal to or higher than 90%.
(§1) A gallium [^67Ga] chloride solution (200 MBq, 63 μL) was added to a mixed solution of the compound A (21 μg), gentisic acid (1.0 mg), a 0.2 mol/L sodium acetate buffer solution (pH 4.0, 730.7 μL), and 4.5 mol/L aqueous sodium hydroxide solution (6.3 μL). The solution was heated to 100° C. for 15 minutes and then left to stand for 5 minutes at room temperature, thereby obtaining [^67Ga]-(compound A).
A lutetium [^177Lu] chloride solution (666 MBq, 333 μL) dissolved in a 0.2 mol/L sodium acetate buffer solution (pH 4.0) was added to a mixed solution of the compound A (70.0 μg), gentisic acid (1.8 mg), and a 0.2 mol/L sodium acetate buffer solution (pH 4.0, 83.3 μL). The solution was heated to 100° C. for 15 minutes and then left to stand for 5 minutes at room temperature, thereby obtaining [^177Lu]-(compound A).
as §1, with “(40” for “(200”, “11.7” for “63”, “B (4.1” for “A (21”, “4.5, 147.13” for “4.0, 730.7”, “(1.17” for “(6.3”, “B).” for “A).”

[3] = Absorbed dose in a human being simulated with OLINDA/EXM 1.0 from monkey organ distribution
Procedure: (§2) Blood was collected from a crab-eating macaque over time, and by using [^111In]-(compound A), from the radioactivity concentration in the blood, kinetic parameters of the compound in blood were calculated by OLINDA/EXM 1.0. Furthermore, by using [^111In]-(compound A), from the organ distribution obtained by imaging, the absorbed dose of each organ obtained in a case where the compound is administered to a human being was calculated using OLINDA/EXM 1.0. [^111In]-(compound A) (98 MBq/9.3 μg) was administered to a crab-eating macaque (Hamri Co., Ltd., males, 3-year-old, 3.4 kg) under anesthesia. After the administration, blood was collected over time, and imaging was performed using a gamma camera. The blood was collected 10, 30, and 60 minutes after the administration and 2, 4, 5, 6, 24, 48, 72, and 144 hours after the administration. Regarding the imaging, after 1, 2, 4, 6, 24, 48, 72, and 144 hours, planar imaging was performed using a gamma camera (Symbia, Siemens Healthcare GmbH). Regarding the anesthesia, the animal was anesthetized with ketamine at 20 mg/kg before the administration of [^111In]-(compound A) and kept anesthetized until the end of imaging, which was continued for 6 hours after the administration, by inhalation anesthesia (isofluran 2 to 3%, 5 to 8 L/min). After 24 hours, ketamine (20 mg/kg) and xylazine (2 mg/kg) were administered to perform blood collection and imaging.
(§3) Furthermore, by using exposure dose analysis software OLINDA/EXM 1.0, the absorbed dose in a human being was simulated using each of the labeled compounds, and the results are shown below.

[4] = tested on: T98G cell (human glioblastoma); experiment: Therapeutic test on T98G subcutaneous transplantation model; format: in vivo, mice (Balb/c Slc-nu/nu); conditions: 1 time; for Number of animals showing regression: 6 animals; for Inhibition rate: 13 days after administration; for Tumor volume 13 days after administration / Tumor volume At the beginning of administration: Mean ± SD
Procedure: Test Example 8 Therapeutic Test on T98G Subcutaneous Transplantation Model Using [^90Y]-(Compound A)
After 77 days, at a point in time when the tumor volume reached 300 to 1,200 mm^3, the mice were grouped. […] The evaluation values were calculated by the same method as in Test Example 7, and the antitumor activity was evaluated.

U87MG cells [5] = conditions: 1 time; for Number of animals showing regression: 8 animals; for Inhibition rate: 16 days after administration; for Tumor volume 16 days after administration / Tumor volume At the beginning of administration: Mean ± SD
Procedure: Test Example 7 Therapeutic Test on U87MG Subcutaneous Transplantation Model Using [^90Y]-(Compound A)
1×10^7 U87MG cells were transplanted into the subcutaneous space of the right flank of Balb/c Slc-nu/nu (males, 6-week-old, Japan SLC. Inc). After 2 weeks, the mice with a tumor having a volume of 100 to 500 mm^3 were grouped. A phosphate buffered saline (PBS) or [^90Y]-(compound A) was administered into the caudal vein, and the tumor volume was measured. At a point in time when the tumor volume of the mice of the PBS group exceeded 2,000 mm^3 which is a humane endpoint, the antitumor activity was evaluated.

[6] = Monkey blood kinetics and planar imaging; format: in vivo, crab-eating macaque
Procedure: Test Example 9 Imaging of Monkey by Using [^111In]-(Compound A)
as §2
The kinetic parameters in blood are also shown below.
as §3

Compound: Cc1cc(OCCCC(=O)NCCNC(=O)[C@H](CS(=O)(=O)O)NC(=O)CC[C@H](C(=O)O)N2CCN(CC(=O)[O-])CCN(CC(=O)[O-])CC2)cc(C)c1S(=O)(=O)N[C@@H](CNC(=O)CCCCc1ccc2c(n1)NCCC2)C(=O)O.[64Cu+2] [[^64Cu]-(compound B)]
- Radioactivity concentration in tumor After 4 hours (U87MG cells [1]): 11.19 % ID/g
- Radioactivity concentration in tumor After 24 hours (U87MG cells [1]): 8.53 % ID/g
- radiochemical purity immediately after preparation and after 24 hours at room temperature [2]: ≥ 90%

Compound: Cc1cc(OCCCC(=O)NCCNC(=O)[C@H](CS(=O)(=O)O)NC(=O)CC[C@H](C(=O)[O-])N2CCN(CC(=O)[O-])CCN(CC(=O)[O-])CC2)cc(C)c1S(=O)(=O)N[C@@H](CNC(=O)CCCCc1ccc2c(n1)NCCC2)C(=O)O.[67Ga+3] [[^67Ga]-(compound B)]
- radiochemical purity immediately after preparation and after 5.5 hours at room temperature ([2]; 5.5 hours): ≥ 95%

Compound: Cc1cc(OCCCC(=O)NCCNC(=O)C(CS(=O)(=O)O)NC(=O)CN2CCN(CC(=O)[O-])CCN(CC(=O)[O-])CCN(CC(=O)[O-])CC2)cc(C)c1S(=O)(=O)NC(CNC(=O)CCCCc1ccc2c(n1)NCCC2)C(=O)O.[90Y+3] (stereo not shown) [[^90Y]-(compound A)]
- Radioactivity concentration in tumor After 4 hours (U87MG cells [1]): 12.52 % ID/g
- Radioactivity concentration in tumor After 24 hours (U87MG cells [1]): 15.29 % ID/g
- Absorbed dose Brain [3]: 1.96 mGy/MBq
- Absorbed dose Kidney [3]: 14.7 mGy/MBq
- Absorbed dose Liver [3]: 1.12 mGy/MBq
- Absorbed dose Lung [3]: 1.35 mGy/MBq
- Absorbed dose Red marrow [3]: 0.06 mGy/MBq
- Absorbed dose Small intestine [3]: 0.87 mGy/MBq
- Absorbed dose Whole body [3]: 0.27 mGy/MBq
- radiochemical purity immediately after preparation and after 24 hours at room temperature [2]: ≥ 95%
- Number of animals showing regression ([4]; 22.2 MBq): 1
- Inhibition rate ([4]; 22.2 MBq): 82%
- Tumor volume 13 days after administration ([4]; 22.2 MBq): 882 ± 399 mm^3
- Tumor volume At the beginning of administration ([4]; 22.2 MBq): 755 ± 293 mm^3
- Number of animals showing regression ([4]; 29.6 MBq): 3
- Inhibition rate ([4]; 29.6 MBq): 97%
- Tumor volume 13 days after administration ([4]; 29.6 MBq): 755 ± 313 mm^3
- Tumor volume At the beginning of administration ([4]; 29.6 MBq): 736 ± 264 mm^3
- Number of animals showing regression (U87MG cells [5]; 14.8 MBq): 2
- Inhibition rate (U87MG cells [5]; 14.8 MBq): 95%
- Tumor volume 16 days after administration (U87MG cells [5]; 14.8 MBq): 429 ± 188 mm^3
- Tumor volume At the beginning of administration (U87MG cells [5]; 14.8 MBq): 351 ± 72 mm^3
- Number of animals showing regression (U87MG cells [5]; 22.2 MBq): 2
- Inhibition rate (U87MG cells [5]; 22.2 MBq): 97%
- Tumor volume 16 days after administration (U87MG cells [5]; 22.2 MBq): 386 ± 142 mm^3
- Tumor volume At the beginning of administration (U87MG cells [5]; 22.2 MBq): 343 ± 88 mm^3

Further lines, results first:

- radiochemical purity immediately after preparation and after 3.5 hours at room temperature ([2]; 3.5 hours): ≥ 95%
Compound: Cc1cc(OCCCC(=O)NCCNC(=O)[C@H](CS(=O)(=O)O)NC(=O)CN2CCN(CC(=O)[O-])CCN(CC(=O)[O-])CCN(CC(=O)[O-])CC2)cc(C)c1S(=O)(=O)N[C@@H](CNC(=O)CCCCc1ccc2c(n1)NCCC2)C(=O)O.[67Ga+3] [[^67Ga]-(compound A)]

- Radioactivity concentration in tumor After 4 hours (U87MG cells [1]): 11.10 % ID/g
- Radioactivity concentration in tumor After 24 hours (U87MG cells [1]): 9.62 % ID/g
- Absorbed dose Brain [3]: 0.25 mGy/MBq
- Absorbed dose Kidney [3]: 1.19 mGy/MBq
- Absorbed dose Liver [3]: 0.19 mGy/MBq
- Absorbed dose Lung [3]: 0.12 mGy/MBq
- Absorbed dose Red marrow [3]: 0.05 mGy/MBq
- Absorbed dose Small intestine [3]: 0.05 mGy/MBq
- Absorbed dose Whole body [3]: 0.05 mGy/MBq
- AUC ([6]; blood, 98 MBq/9.3 μg): 0.22 % ID · h/mL
- CL ([6]; blood, 98 MBq/9.3 μg): 2.17 mL/min/kg
- Cmax ([6]; blood, 98 MBq/9.3 μg): 0.018 % ID/mL
- T½α ([6]; blood, 98 MBq/9.3 μg): 0.46 h
- T½β ([6]; blood, 98 MBq/9.3 μg): 19.3 h
- Vss ([6]; blood, 98 MBq/9.3 μg): 3.52 L/kg
- integration into the bladder and the gall bladder (planar imaging) ([6]; up to 6 hours after the administration): increased over time
- radiochemical purity immediately after preparation and after 24 hours at room temperature [2]: ≥ 95%
Compound: Cc1cc(OCCCC(=O)NCCNC(=O)C(CS(=O)(=O)O)NC(=O)CN2CCN(CC(=O)[O-])CCN(CC(=O)[O-])CCN(CC(=O)[O-])CC2)cc(C)c1S(=O)(=O)NC(CNC(=O)CCCCc1ccc2c(n1)NCCC2)C(=O)O.[111In+3] (stereo not shown) [[^111In]-(compound A)]

- radiochemical purity immediately after preparation and after 3 hours at room temperature ([2]; 3 hours): ≥ 95%
Compound: Cc1cc(OCCCC(=O)NCCNC(=O)[C@H](CS(=O)(=O)O)NC(=O)CN2CCN(CC(=O)[O-])CCN(CC(=O)[O-])CCN(CC(=O)[O-])CC2)cc(C)c1S(=O)(=O)N[C@@H](CNC(=O)CCCCc1ccc2c(n1)NCCC2)C(=O)O.[177Lu+3] [[^177Lu]-(compound A)]
